How the values were obtained:
in vivo [1] = settings: rat, po
in vivo [2] = settings: rat

- bioavailability (in vivo [1]): 95%
- half-life (in vivo [2]): 4.9 h
Compound: Cn1nc(CC(CC(=O)O)c2ccc3c(c2)OCO3)cc1OCCc1ccc2c(n1)NCCC2 (configuration not stated)
